ChEMBL document CHEMBL1201862, “PubChem BioAssay data set” (2004)
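How tested: cells in 96-well plates exposed to compound for 48 hours at five concentrations. GI50 is the concentration that inhibits growth by half.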 Active and inactive are the calls of the source. No stated cut-off is given here; in the data, active = GI50 up to about 1.1 µM and inactive = higher.

Assays:
Assay in all cases: NCI anticancer screen, dose series, 48 h
[1] = test system: 786-0
[2] = test system: OVCAR-5
[3] = test system: UACC-62
[4] = test system: HCT-116
[5] = test system: HL-60
[6] = test system: COLO 205
[7] = test system: MDA-MB-435
[8] = test system: HOP-62
[9] = test system: SK-MEL-2
[10] = test system: CCRF-CEM
[11] = test system: RPMI-8226
[12] = test system: Hs-578T
[13] = test system: T47D
[14] = test system: EKVX
[15] = test system: MDA-MB-231
[16] = test system: HOP-92
[17] = test system: BT-549
[18] = test system: SNB-19
[19] = test system: NCI-H226

`CC(C)OC(=O)NNc1c(Cl)cc(Cl)cc1Cl` was tested, and the GI50 [1] was > 100 µM (inactive), the GI50 [2] was > 100 µM (inactive) and the GI50 [3] was 56.9 µM (inactive). For the same compound, the GI50 [4] was 80.9 µM (inactive), the GI50 [5] was 68.9 µM (inactive) and the GI50 [6] was 49.1 µM (inactive). For the same compound, the GI50 [7] was 82.8 µM (inactive), the GI50 [8] was > 100 µM (inactive) and the GI50 [9] was 55.6 µM (inactive). For the same compound, the GI50 [10] was 53.6 µM (inactive), the GI50 [11] was 43.4 µM (inactive) and the GI50 [12] was 58.2 µM (inactive). The GI50 [13] was 33.7 µM (inactive), the GI50 [14] was 31.6 µM (inactive) and the GI50 [15] was > 100 µM (inactive). The GI50 [16] was 23.2 µM (inactive), the GI50 [17] was 44.4 µM (inactive) and the GI50 [18] was > 100 µM (inactive).

`COc1cc(Nc2nc3ccccc3n3cccc23)cc(OC)c1OC` was tested, and the GI50 [1] was 94.8 µM (inactive), the GI50 [2] was > 100 µM (inactive) and the GI50 [3] was > 100 µM (inactive). The GI50 [4] was > 100 µM (inactive), the GI50 [5] was 47.8 µM (inactive) and the GI50 [6] was > 100 µM (inactive). For the same compound, the GI50 [7] was > 100 µM (inactive), the GI50 [8] was 19.1 µM (inactive) and the GI50 [9] was 52.5 µM (inactive). The GI50 [10] was > 100 µM (inactive), the GI50 [11] was > 100 µM (inactive) and the GI50 [12] was 64.4 µM (inactive). The GI50 [13] was 0.276 µM (active), the GI50 [14] was > 100 µM (inactive) and the GI50 [15] was 27.1 µM (inactive). The GI50 [16] was 44.2 µM (inactive), the GI50 [17] was 68.9 µM (inactive) and the GI50 [18] was 98.2 µM (inactive).

In the case of `CN1c2ccccc2S(=O)(=O)n2c(COc3ccc(Cl)cc3)nnc21`, the GI50 [1] is reported as 41.5 µM (inactive), the GI50 [2] is reported as > 100 µM (inactive) and the GI50 [3] is reported as 56.2 µM (inactive). The GI50 [4] was > 100 µM (inactive), the GI50 [5] was 91 µM (inactive) and the GI50 [6] was > 100 µM (inactive). For the same compound, the GI50 [7] was > 100 µM (inactive), the GI50 [8] was 21.7 µM (inactive) and the GI50 [19] was 92.5 µM (inactive). For the same compound, the GI50 [9] was > 100 µM (inactive), the GI50 [10] was 75.7 µM (inactive) and the GI50 [12] was 43.4 µM (inactive). For the same compound, the GI50 [13] was > 100 µM (inactive), the GI50 [14] was > 100 µM (inactive) and the GI50 [15] was 44.8 µM (inactive). The GI50 [16] was 28 µM (inactive), the GI50 [17] was 50.6 µM (inactive) and the GI50 [18] was 57.4 µM (inactive).

In the case of `C/C(CC(O)(C(F)(F)Cl)C(F)(F)Cl)=N\Nc1ccccc1`, the GI50 [1] is reported as 41.1 µM (inactive), the GI50 [2] is reported as > 100 µM (inactive) and the GI50 [3] is reported as 43.3 µM (inactive). For the same compound, the GI50 [4] was 34.5 µM (inactive), the GI50 [5] was 22.5 µM (inactive) and the GI50 [6] was 31.8 µM (inactive). The GI50 [7] was 31.9 µM (inactive), the GI50 [19] was 25.2 µM (inactive) and the GI50 [9] was 21.5 µM (inactive). For the same compound, the GI50 [10] was 29 µM (inactive), the GI50 [11] was 30.2 µM (inactive) and the GI50 [12] was 27.2 µM (inactive). The GI50 [13] was 28.2 µM (inactive), the GI50 [14] was 23.1 µM (inactive) and the GI50 [15] was 47.6 µM (inactive). For the same compound, the GI50 [16] was 21.7 µM (inactive), the GI50 [17] was 33.6 µM (inactive) and the GI50 [18] was 36.9 µM (inactive).

In the case of `COc1c(OC)c(O)c2c(=O)c(OC)c(-c3ccc4c(c3)OCO4)oc2c1O`, the GI50 [1] is reported as > 100 µM (inactive), the GI50 [2] is reported as > 100 µM (inactive) and the GI50 [3] is reported as > 100 µM (inactive). For the same compound, the GI50 [4] was 38.6 µM (inactive), the GI50 [5] was 19.5 µM (inactive) and the GI50 [6] was > 100 µM (inactive). The GI50 [7] was > 100 µM (inactive), the GI50 [8] was > 100 µM (inactive) and the GI50 [19] was > 100 µM (inactive). For the same compound, the GI50 [9] was > 100 µM (inactive), the GI50 [10] was 55.5 µM (inactive) and the GI50 [12] was > 100 µM (inactive). The GI50 [13] was 24.5 µM (inactive), the GI50 [14] was > 100 µM (inactive) and the GI50 [15] was > 100 µM (inactive). The GI50 [16] was 1.39 µM (inactive), the GI50 [17] was > 100 µM (inactive) and the GI50 [18] was > 100 µM (inactive).

With `O=c1c2c3c(sc2nc(S)n1-c1ccccc1)CCCc1ccc([N+](=O)[O-])cc1-3` the GI50 [1] was 54 µM (inactive), the GI50 [2] was > 100 µM (inactive) and the GI50 [3] was 26.7 µM (inactive). For the same compound, the GI50 [4] was 39.1 µM (inactive), the GI50 [5] was 17.6 µM (inactive) and the GI50 [6] was > 100 µM (inactive). The GI50 [7] was 49.5 µM (inactive), the GI50 [8] was 35.1 µM (inactive) and the GI50 [19] was > 100 µM (inactive). For the same compound, the GI50 [9] was > 100 µM (inactive), the GI50 [11] was 22.6 µM (inactive) and the GI50 [12] was 87.3 µM (inactive). The GI50 [13] was 17.5 µM (inactive), the GI50 [14] was > 100 µM (inactive) and the GI50 [15] was > 100 µM (inactive). For the same compound, the GI50 [16] was 20.6 µM (inactive), the GI50 [17] was 24.8 µM (inactive) and the GI50 [18] was 40.8 µM (inactive).

For `COc1ccc(NC(=O)/C(=N/NC(N)=S)C2C(=O)NC(=S)NC2=O)c(OC)c1`, the GI50 [1] was > 100 µM (inactive), the GI50 [2] was > 100 µM (inactive) and the GI50 [3] was > 100 µM (inactive). The GI50 [4] was > 100 µM (inactive), the GI50 [5] was > 100 µM (inactive) and the GI50 [6] was > 100 µM (inactive). For the same compound, the GI50 [7] was > 100 µM (inactive), the GI50 [19] was > 100 µM (inactive) and the GI50 [9] was > 100 µM (inactive). The GI50 [10] was 62.2 µM (inactive), the GI50 [11] was > 100 µM (inactive) and the GI50 [12] was > 100 µM (inactive). For the same compound, the GI50 [13] was > 100 µM (inactive), the GI50 [14] was > 100 µM (inactive) and the GI50 [15] was > 100 µM (inactive). For the same compound, the GI50 [16] was > 100 µM (inactive), the GI50 [17] was > 100 µM (inactive) and the GI50 [18] was > 100 µM (inactive).

With `COc1cc(S(=O)(=O)Nc2ccc(-c3csc(N)n3)cc2)ccc1Cl` the GI50 [1] was 16.4 µM (inactive), the GI50 [2] was 23.3 µM (inactive) and the GI50 [3] was 15.2 µM (inactive). For the same compound, the GI50 [4] was 16.2 µM (inactive), the GI50 [5] was 15 µM (inactive) and the GI50 [6] was 17 µM (inactive). For the same compound, the GI50 [7] was 20.8 µM (inactive), the GI50 [19] was 26.4 µM (inactive) and the GI50 [9] was 18.8 µM (inactive). The GI50 [10] was 15.5 µM (inactive), the GI50 [11] was 19.5 µM (inactive) and the GI50 [12] was 53.7 µM (inactive). For the same compound, the GI50 [13] was 7.87 µM (inactive), the GI50 [14] was 16.6 µM (inactive) and the GI50 [15] was 16.9 µM (inactive). The GI50 [16] was 22.6 µM (inactive), the GI50 [17] was 22.3 µM (inactive) and the GI50 [18] was 19.5 µM (inactive).
